This is an account of results in EP0386258A1, “TETRAHYDROPYRIDINE DERIVATIVES” (Asahi Kasei Kabushiki Kaisha, priority 1988, dated 1990).

Structures can show the parent of a compound that is named as a salt.

Data set [1] concerns akinesia of mice during forced swimming. Briefly: mill wheel test (forced swimming), psychoanaleptic activity. It is filed as in vivo. The procedure:
This test was conducted in the following manner according to a method described in S. Nomura et al., Eur. J. Pharmacol., 83, 171 - 175 (1982).
Activities of each drug on the akinesia of mice during forced swimming were examined by a mill wheel test. Now the meaning of this test will be described. The akinesia observed during forced swimming of mice may be regarded as emotional disturbance since the animals resign escaping from the narrow environment (device) as the result of learning. It has been known that this akinesia can be shortened by drugs having psychoanaleptic effects such as antidepressants or MAO inhibitors. Namely, each drug was orally administered to a mouse. 40 minutes after the administration, the mouse was introduced into a water tank provided with a mill wheel and contained water at 25 °C. Then, the number of rotations of the wheel was counted throughout the observation period (6 minutes). However, P-CC2 was subcutaneously administered to avoid decomposition in digestive organ and the examination was conducted for 15 minutes thereafter (see Margaret M. Schweri, Joseph V. Martin, Wallace B. Mendelson, James E. Barrett, Steven M. Paul and Phil Skolnick, Life Science, 1505-1510, 33 (1983) and P. Skolnick, M. M. Schweri, S. M. Paul, J. V. Martin and W. B. Mendelson, Life Science, 2439-2445, 32 (1983)).

Data set [2] relates to male Wister rats. Nature of the data set: water lick conflict test, learning improvement activity (latent time). As to conditions: time until first drinking water, average of no-drug rats defined as 100 (n = 5). It is filed as in vivo. From the text: (§1) The antianxiety activity and learning improvement activity of the compounds of the present invention were examined by using male Wister rats aged 6 weeks by a water lick conflict test by reference to a method described by Vogel J. R., Beer B. and Clody D. E. described in Psvcho^pharmacolo^qia, 1 - 7, 21 (1971).
(§2) In this test, rats having abstained from water were used and an electric shock was applied to the animals every time they drank water to bring the rats into an anxious state. Thus the activity of medicaments to the rats were determined.
This test was conducted simultaneously with the measurement of the antianxiety activity (2) and aims at measuring the latent time when the rats abstinence from water first began to drink water.
A longer latent time means the higher learning improvement activity.

The nature of data set [3]: subacute toxicity, oral administration for 35 days. The note with it: rat, in vivo. On the procedure:
(§3) Subacute toxicities of N-(2-aminoethyl)benzo[b]thieno-[2,3-c]pyridine-3-carboamide (A-6) and N-cyclohexyl-1,2,3,4-tetrahydrobenzo[b]thieno[2,3-c]pyridine-3-carboamide (A-9) were tested by orally administering these compounds to Wistar rats for 35 days. The test was conducted in the following manner.
(§4) Each compound was compulsory orally administered to Wistar SPF rats once a day between 9.00 a.m. to 11:30 a.m. by using a 2 ml or 5 ml disposable syringe and a rat gastric sound for 35 days continuously. Syringes were exchanged for each dose and for each compound. The administration period was determined by referring the initial day of the administration as to 0 day.

The subject of data set [4] is Wistar rats. Briefly: subacute toxicity, oral administration for 35 days. The note with it: rat, in vivo. The procedure: as §3, §4
In data set [5] the test system is male Wister rats. Nature of the data set: water lick conflict test, antianxiety activity (shocked number). It is filed as in vivo. The note with it: electric shocks within 5 minutes, no-drug rat defined as 100 (n = 5).
From the text: as §1, §2
Rats, having abstained from water for 24 hours prior to the test, were allowed to access to water. After 4 to 5 hours, a drug was administered to the animals. After a definite treatment period, the test was initiated. The shocked number means the number of electric shocks applied to the rats within 5 minutes after initially allowing them to access to water. […] That is, an increase in the shocked number means that the antianxiety activity is increased.

Setting [6] is: 60 mg/kg orally, 40 minutes after administration, observation period 6 minutes, water at 25 °C.

Take `O=C(c1cc2c(cn1)sc1ccccc12)N1CCOCC1` [Compound A-5, 4-(benzo[b]thieno[2,3-c]pyridine-3-carbonyl)morpholine]: the “Numbers of Rotations of Wheel” value in data set [1] (setting [6]) turned out to be 21.3±4.0.
Broadly, the NOAEL is the highest tested level that showed no adverse finding. Turning to `O=C(NC1CCCCC1)C1Cc2c(sc3ccccc23)CN1` (centres unmarked) [Compound A-9, N-cyclohexyl-1,2,3,4-tetrahydrobenzo[b]thieno-[2,3-c]pyridine-3-carboamide hydrochloride], the “Latent Time” value in data set [2] (30 mg/kg P.O.) was 350±32. Moreover, the no observed adverse effect level (NOAEL) at 840 h in data set [3] (Safe Dose) stood at 200 mg/kg; in data set [3] (Subeffective Dose), 50 mg/kg. The “Toxic (lethal) Dose” value in data set [4] came out at 800 mg/kg. Moreover, the “Shocked Number” value in data set [5] (30 mg/kg P.O.) amounted to 389±41. The “Numbers of Rotations of Wheel” value in data set [1] (setting [6]) was found to be 37.1±8.0.
Consider `CCOC(=O)C1Cc2c(sc3ccccc23)CN1` (centres unmarked) [Compound A-2, l,2,3,4-tetrahydrobenzo[b]thieno[2,3-c]pyridine-3-carboxylic acid ethyl ester], for which the “Numbers of Rotations of Wheel” value in data set [1] (setting [6]) was determined as 26.5±2.9.
As for `Clc1ccc2sc3c(c2c1)CCNC3` [Compound C-1, 6-chloro-1,2,3,4-tetrahydrobenzo[b]-thieno[2,3-c]pyridine], the “Latent Time” value in data set [2] (40 mg/kg P.O.) is given as 128±19.6. For the same compound, the “Shocked Number” value in data set [5] (40 mg/kg P.O.) was 104.3±28.6. Also, in data set [1] (setting [6]), the “Numbers of Rotations of Wheel” value came out at 24.3±4.3.
In the case of `NCCNC(=O)c1cc2c(cn1)sc1ccccc12` [Compound A-6, N-(2-aminoethyl)benzo[b]thieno[2,3-c]pyridine-3-carboamide], the NOAEL at 840 h in data set [3] (Safe Dose) and in data set [3] (Subeffective Dose) was 50 mg/kg each time. In data set [4], the “Toxic (lethal) Dose” value came to 200 mg/kg. Further, in data set [1] (setting [6]), the “Numbers of Rotations of Wheel” value is 25.4±9.1.
On to `CCOC(=O)c1cc2c(cn1)[nH]c1ccccc12` [β-CCE, β-carboline-3-carboxylic acid ethyl ester], for which the “Latent Time” value in data set [2] (40 mg/kg P.O.) amounted to 312±38.2. Also, in data set [5] (40 mg/kg P.O.), the “Shocked Number” value stood at 82.9±20.0. For the same compound, in data set [1] (10 mg/kg subcutaneously, examination 15 minutes thereafter), the “Numbers of Rotations of Wheel” value was 23.6±4.1.
In the case of `CCCCCCNC(=O)C1Cc2c(sc3ccccc23)CN1` (centres unmarked) [Compound A-8, N-hexyl-1,2,3,4-tetrahydrobenzo[b]-thieno[2,3-c]pyridine-3-carboamide], in data set [2] (40 mg/kg P.O.), the “Latent Time” value came out at 249±36.6. The “Shocked Number” value in data set [5] (40 mg/kg P.O.) came out at 111.8±28.6. The “Numbers of Rotations of Wheel” value in data set [1] (setting [6]) was 20.9±7.6.
The like results for `CCNC(=O)C1Cc2c(sc3ccccc23)CN1` (centres unmarked) [Compound A-7, N-ethyl-1,2,3,4-tetrahydrobenzo[b]thieno(2,3-c]pyridine-3-carboamide] were, in that order, 232±34.7, 127.1±31.5 and 19.3±8.1.
Consider `O=C(c1cc2c(cn1)sc1ccccc12)N1CCCNCC1` [Compound A-3, hexahydro-l-(benzo[b]-thieno[2,3-c]pyridine-3-carbonyl)-lH-1,4-diazepine], for which, in data set [1] (setting [6]), the “Numbers of Rotations of Wheel” value is reported as 22.4±6.7.
Still for that read-out and setting: next, `O=C(c1cc2c(cn1)sc1ccccc12)N1CCCCC1` [Compound A-4, 1-(benzo[b]thieno[2,3-c]pyridine-3-carbonyl)piperidine]: 24.7±3.9.
As for `CCOC(=O)c1cc2c(cn1)sc1ccccc12` [Compound A-1, benzo[b]thieno[2,3-c]pyridine-3-carboxylic acid ethyl ester], the “Latent Time” value in data set [2] (40 mg/kg P.O.) is 132±29.9. Besides, in data set [5] (40 mg/kg P.O.), the “Shocked Number” value is given as 117.1±25.7. Also, in data set [1] (setting [6]), the “Numbers of Rotations of Wheel” value is listed as 23.4±6.8.
